These results are taken from patent publication US20230265151A1, “GIP/GLP1 CO-AGONIST COMPOUNDS” (priority 2020, published 2023).

One experiment addresses T1, hGIPR (Homo sapiens, UniProt P48546).
T1 construct: expressed in transfected cells
T1 sequence (P48546 22-466): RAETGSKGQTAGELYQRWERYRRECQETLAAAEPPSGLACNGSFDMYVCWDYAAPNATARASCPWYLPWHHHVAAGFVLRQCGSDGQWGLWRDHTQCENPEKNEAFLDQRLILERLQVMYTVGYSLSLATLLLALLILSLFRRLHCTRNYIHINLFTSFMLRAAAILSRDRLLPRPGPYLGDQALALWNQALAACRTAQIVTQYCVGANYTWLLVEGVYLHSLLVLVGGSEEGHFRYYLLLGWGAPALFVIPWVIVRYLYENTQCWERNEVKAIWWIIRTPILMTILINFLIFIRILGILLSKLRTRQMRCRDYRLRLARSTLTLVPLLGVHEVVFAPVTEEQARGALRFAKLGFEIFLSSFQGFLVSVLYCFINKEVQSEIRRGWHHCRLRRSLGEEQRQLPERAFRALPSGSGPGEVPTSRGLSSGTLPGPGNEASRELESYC
Put plainly: Functional cAMP formation (HTRF) in HEK-293 clonal cells expressing hGIPR, 0.1% bovine casein, without or with 1.0% human serum albumin. The format is cell-based. Particulars: hGIPR EC50, nM (SEM, n), cAMP, 37° C., 0.1% bovine casein (no human serum albumin); geometric mean. Put shortly: (§1)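 Cells were stimulated with peptide for 30 min at 37° C, then lysed in buffer carrying cAMP-d2 and anti-cAMP Eu3+-cryptate for a competitive HTRF read after at least 60 min at room temperature. The 665/620 nm ratio was converted to nM cAMP against a standard curve.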
In general terms: Changes in cAMP serve as a functional read-out for many G protein-coupled receptors.

The next experiment deals with hGLP-1R (Homo sapiens, UniProt P43220). Put plainly: Functional cAMP formation (HTRF) in HEK-293 clonal cells expressing hGLP-1R, 0.1% bovine casein, without or with 1.0% human serum albumin. The class given is cell-based. The arrangement: expressed in transfected cells. The following applies: for Emax: percent of maximal response to GLP-1(7-36)NH2. The procedure, abridged:
as §1

Another experiment addresses T2, hGCGR (Homo sapiens, UniProt P47871).
T2 construct: expressed in transfected cells
Put plainly: Functional cAMP formation (HTRF) in HEK-293 clonal cells expressing hGCGR, 0.1% bovine casein, without or with 1.0% human serum albumin. Particulars: hGCGR EC50, nM (SEM, n), 37° C., geometric mean. The class given is cell-based. Put shortly:
as §1

In experiment [1] the target is human GLP-1 receptor (human, UniProt P43220 24-463). Put plainly: cell-based or functional assay.
The target in experiment [2] is T3, human GIP receptor (human, UniProt P48546 22-466).
T3 sequence (looked up): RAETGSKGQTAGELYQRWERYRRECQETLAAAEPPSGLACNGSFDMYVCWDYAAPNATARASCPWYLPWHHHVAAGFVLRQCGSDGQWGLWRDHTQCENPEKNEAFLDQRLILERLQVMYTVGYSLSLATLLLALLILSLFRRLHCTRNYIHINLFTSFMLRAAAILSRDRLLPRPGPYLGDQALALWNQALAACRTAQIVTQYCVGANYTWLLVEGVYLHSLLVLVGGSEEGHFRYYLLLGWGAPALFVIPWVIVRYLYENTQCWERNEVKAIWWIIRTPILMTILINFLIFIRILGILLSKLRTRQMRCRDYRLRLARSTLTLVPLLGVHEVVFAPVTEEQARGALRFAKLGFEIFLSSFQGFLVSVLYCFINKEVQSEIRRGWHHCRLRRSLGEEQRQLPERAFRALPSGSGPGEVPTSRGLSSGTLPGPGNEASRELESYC
Put plainly: cell-based or functional assay.

Experiment [3] concerns the target human GLP-1 receptor (human, UniProt P43220 24-463). Put plainly: cell-based or functional assay. The source holds these as a separate data set.
Experiment [4] has as its target T4, human GIP receptor (human, UniProt P48546 22-466).
T4 sequence (looked up): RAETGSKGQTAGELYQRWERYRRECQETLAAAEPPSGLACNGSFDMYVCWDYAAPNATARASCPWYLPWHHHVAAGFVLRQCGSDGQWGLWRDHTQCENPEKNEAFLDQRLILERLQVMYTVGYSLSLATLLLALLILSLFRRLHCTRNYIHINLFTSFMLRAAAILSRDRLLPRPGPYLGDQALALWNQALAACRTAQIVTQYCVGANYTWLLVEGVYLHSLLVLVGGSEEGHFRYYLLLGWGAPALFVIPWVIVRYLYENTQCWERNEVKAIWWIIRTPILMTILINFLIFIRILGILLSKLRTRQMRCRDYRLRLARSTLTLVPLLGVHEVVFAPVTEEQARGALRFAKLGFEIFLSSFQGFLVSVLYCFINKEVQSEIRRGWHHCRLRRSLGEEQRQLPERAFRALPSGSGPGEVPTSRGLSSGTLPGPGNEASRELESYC
Put plainly: cell-based or functional assay. This is another data set of the same source.

Where two headings read alike, the source gives them in different places. *1 amine or outer side, *2 acyl side, *3 side chain or, on linkers, in order; H or OH if unused. Where a SMILES comes first, the peptide text is derived from it. Where no end group is shown, it is not given here. Side-chain parts run from the residue outwards. [ ]: non-standard residue; d: D form. The star is where a group is joined. Decanoyl(10-(4-HOOC-PhO)) = O=C(O)c1ccc(OCCCCCCCCCC(=O)*)cc1; αMePhe(2-F) = C[C@](N)(Cc1ccccc1F)C(=O)O; γGlu = O=C(O)[C@H](CCC(=O)[*:2])N[*:1]; C14 diacid = O=C(O)CCCCCCCCCCCCC(=O)*; αMeY = C[C@](N)(Cc1ccc(O)cc1)C(=O)O; αMeL = CC(C)C[C@](C)(N)C(=O)O; Orn = NCCC[C@H](N)C(=O)O; AEEA = NCCOCCOCC(=O)O; Aib = CC(C)(N)C(=O)O

One may read the EC50 as the concentration at which the effect is half-maximal. A lower EC50 goes with greater potency. One may read the Emax as the size of the effect at its maximum, as opposed to the concentration needed.

hGLP-1R, sequence (P43220 24-463): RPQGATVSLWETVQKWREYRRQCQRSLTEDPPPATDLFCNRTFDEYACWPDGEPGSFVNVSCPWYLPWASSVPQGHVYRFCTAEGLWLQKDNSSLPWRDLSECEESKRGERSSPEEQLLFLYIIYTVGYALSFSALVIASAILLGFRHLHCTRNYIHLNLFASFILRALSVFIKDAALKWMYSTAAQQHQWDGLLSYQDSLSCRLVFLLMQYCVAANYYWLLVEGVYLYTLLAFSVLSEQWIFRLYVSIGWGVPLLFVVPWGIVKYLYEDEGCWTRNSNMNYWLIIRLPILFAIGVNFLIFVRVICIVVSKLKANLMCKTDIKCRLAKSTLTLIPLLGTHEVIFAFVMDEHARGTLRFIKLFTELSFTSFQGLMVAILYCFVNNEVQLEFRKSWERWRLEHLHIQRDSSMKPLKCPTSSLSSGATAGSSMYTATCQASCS
T2 sequence (P47871 26-477): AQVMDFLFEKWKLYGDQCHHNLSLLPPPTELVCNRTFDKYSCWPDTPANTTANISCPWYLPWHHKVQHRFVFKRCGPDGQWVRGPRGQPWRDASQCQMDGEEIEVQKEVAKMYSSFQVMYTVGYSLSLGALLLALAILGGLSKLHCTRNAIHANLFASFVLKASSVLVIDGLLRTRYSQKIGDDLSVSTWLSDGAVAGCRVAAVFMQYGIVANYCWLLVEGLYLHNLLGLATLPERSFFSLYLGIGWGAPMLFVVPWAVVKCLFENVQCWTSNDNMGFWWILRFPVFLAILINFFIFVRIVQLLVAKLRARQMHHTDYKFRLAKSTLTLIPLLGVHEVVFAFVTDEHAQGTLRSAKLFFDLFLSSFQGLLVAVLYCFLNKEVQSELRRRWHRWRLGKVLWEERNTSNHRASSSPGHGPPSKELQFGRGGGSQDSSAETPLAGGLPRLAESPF

With `CC[C@H](C)[C@H](NC(=O)[C@H](CC(C)C)NC(=O)[C@](C)(Cc1ccc(O)cc1)NC(=O)[C@@H](CCC(=O)O)NC(=O)[C@@H](NC(=O)[C@H](Cc1ccccc1)NC(=O)[C@H](CCCCNC(=O)COCCOCCNC(=O)COCCOCCNC(=O)CC[C@H](NC(=O)CCCCCCCCCOc1ccc(C(=O)O)cc1)C(=O)O)NC(=O)C(C)(C)NC(=O)[C@H](CCC(N)=O)NC(=O)[C@H](C)NC(=O)[C@H](CCCCNC(=O)COCCOCCNC(=O)COCCOCCNC(=O)CC[C@H](NC(=O)CCCCCCCCCOc1ccc(C(=O)O)cc1)C(=O)O)NC(=O)[C@H](CCCN)NC(=O)[C@H](CC(=O)O)NC(=O)[C@H](CC(C)C)NC(=O)[C@](C)(CC(C)C)NC(=O)[C@@H](NC(=O)[C@H](CO)NC(=O)[C@H](Cc1ccc(OC)cc1)NC(=O)[C@H](CC(=O)O)NC(=O)[C@H](CO)NC(=O)[C@@H](NC(=O)[C@](C)(Cc1ccccc1F)NC(=O)[C@@H](NC(=O)CNC(=O)[C@H](CCC(=O)O)NC(=O)C(C)(C)NC(=O)[C@@H](N)Cc1ccc(O)cc1)[C@@H](C)O)[C@@H](C)O)[C@@H](C)CC)[C@@H](C)CC)C(=O)N[C@@H](CCC(=O)O)C(=O)NCC(=O)NCC(=O)N1CCC[C@H]1C(=O)N[C@@H](CO)C(=O)N[C@@H](CO)C(=O)NCC(=O)N[C@@H](C)C(=O)N1CCC[C@H]1C(=O)N1CCC[C@H]1C(=O)N1CCC[C@H]1C(=O)N[C@@H](CO)C(N)=O` [Example 277] (H-Y[Aib]EGT[αMePhe(2-F)]TSDY(Me)SI[αMeL]LD[Orn]K([AEEA-AEEA-γGlu-Decanoyl(10-(4-HOOC-PhO))])AQ[Aib]K([AEEA-AEEA-γGlu-Decanoyl(10-(4-HOOC-PhO))])FI[dE][αMeY]LIEGGPSSGAPPPS-NH2), the EC50 was 0.0176 nM on hGIPR; 0.225 nM on hGLP-1R (hGLP-1R EC50, nM (SEM, n), cAMP, 37° C., 0.1% bovine casein (no human serum albumin), geometric mean); more than 9950 nM on hGCGR (0.1% bovine casein and 1.0% human serum albumin); more than 9950 nM on hGCGR (cAMP, 0.1% bovine casein (no human serum albumin)). Besides, the maximal effect (Emax) on hGLP-1R (HEK293, read-out: hGLP-1R Emax, % ± SEM, 0.1% bovine casein and 1.0% human serum albumin, 37° C.) came to 93.1%; at hGLP-1R (HEK293, read-out: hGLP-1R Emax, % ± SEM, cAMP, 37° C., 0.1% bovine casein, arithmetic mean), 97.1%.

On to Y[Aib]EGT[αMePhe(2-F)]TSDV[Aib]I[αMeL]LD[Orn]IAQ[Aib]EFIK([AEEA-AEEA-γGlu-C14 diacid])[αMeY]LIK([AEEA-AEEA-γGlu-C14 diacid])GGPSSGAPPPS-NH2 [Example 304], for which the “cAMP EC50 (1.0% HSA)” value stood at 64.2 nM with human GLP-1 receptor [1] and 4.83 nM with human GIP receptor [2].

B1: Example 91 (peptide)
peptide: Y[Aib]EGT[αMePhe(2-F)]TSDV[Aib]I[αMeL]LD[Orn]K([AEEA-AEEA-γGlu-C14 diacid])AQ[Aib]EFI[dE][αMeY]LIEGGK([AEEA-AEEA-γGlu-C14 diacid])SSGAPPPS-NH2
modifications: N-terminus assumed
SMILES: CC[C@H](C)[C@H](NC(=O)[C@H](CC(C)C)NC(=O)[C@](C)(Cc1ccc(O)cc1)NC(=O)[C@@H](CCC(=O)O)NC(=O)[C@@H](NC(=O)[C@H](Cc1ccccc1)NC(=O)[C@H](CCC(=O)O)NC(=O)C(C)(C)NC(=O)[C@H](CCC(N)=O)NC(=O)[C@H](C)NC(=O)[C@H](CCCCNC(=O)COCCOCCNC(=O)COCCOCCNC(=O)CC[C@H](NC(=O)CCCCCCCCCCCCC(=O)O)C(=O)O)NC(=O)[C@H](CCCN)NC(=O)[C@H](CC(=O)O)NC(=O)[C@H](CC(C)C)NC(=O)[C@](C)(CC(C)C)NC(=O)[C@@H](NC(=O)C(C)(C)NC(=O)[C@@H](NC(=O)[C@H](CC(=O)O)NC(=O)[C@H](CO)NC(=O)[C@@H](NC(=O)[C@](C)(Cc1ccccc1F)NC(=O)[C@@H](NC(=O)CNC(=O)[C@H](CCC(=O)O)NC(=O)C(C)(C)NC(=O)[C@@H](N)Cc1ccc(O)cc1)[C@@H](C)O)[C@@H](C)O)C(C)C)[C@@H](C)CC)[C@@H](C)CC)C(=O)N[C@@H](CCC(=O)O)C(=O)NCC(=O)NCC(=O)N[C@@H](CCCCNC(=O)COCCOCCNC(=O)COCCOCCNC(=O)CC[C@H](NC(=O)CCCCCCCCCCCCC(=O)O)C(=O)O)C(=O)N[C@@H](CO)C(=O)N[C@@H](CO)C(=O)NCC(=O)N[C@@H](C)C(=O)N1CCC[C@H]1C(=O)N1CCC[C@H]1C(=O)N1CCC[C@H]1C(=O)N[C@@H](CO)C(N)=O
Turning to B1, the “EC50, cAMP” value with human GLP-1 receptor [3] amounted to 0.153 nM; in the experiment with human GIP receptor [4], 0.0739 nM. The “Emax, cAMP” value is 94% in the experiment with human GLP-1 receptor [3] and 92.8% in the experiment with human GIP receptor [4].
